Measurements as given in US4650799A, “Bis-dioxopiperazine derivatives, process for their preparation, antitumor agents comprising them and compositions containing them” (Zenyaku Kogyo Kabushiki Kaisha, priority 1983, dated 1987).

Assays:
[1] = tested on: P388 lymphocytic leukemia; assay: Animal Test on P388 Lymphocytic Leukemia (increase in life span); assay type: in vivo, mice [CDF1 (BALB/c×DBA/2)]; settings: Mus musculus, P388, ip, i.p.; for ILS at 20 mg/kg / ILS at 60 mg/kg: 216 h; for ILS at 20 mg/kg: 20 mg/kg × 9 days; for ILS at 200 mg/kg: 200 mg/kg × 2 (1st and 5th day); for ILS at 60 mg/kg: 60 mg/kg × 9 days
Description: The treated group to which the compound of the present invention was administered consisted of seven mice, while the control group consisted of ten mice. Six weeks old male mice [CDF1 (BALB/c×DBA/2), 25±2 g of body weight] were employed as host animals.
Tumor cells (1.0×10^6) of P388 lymphocytic leukemia were transplanted intraperitoneally into each mouse. The treatment began one day after the transplantation and the prescribed dose of each test compound was administered intraperitoneally to the mice once a day for 9 days or on the 1st and 5th day.
Antitumor activity of the test compound was evaluated by the rate of increase in life span (I.L.S.%) which was calculated with the following formula. [formula] T: mean survival time of treated mice C: mean survival time of control mice

[2] = tested on: Lewis lung carcinoma; assay: Animal Test on Lewis Lung Carcinoma (growth inhibition, metastasis); assay type: in vivo, mice [BDF1 (C57BL/6×DBA/2)]; settings: orally, 8 days, tumor weight on 20th day
Description: (§1) Antitumor activities of bis-dioxopiperazine derivatives which the present invention concerns were verified by the growth inhibition or the increase of life span in experimental animals with syngenic tumors such as P388 lymphocytic leukemia, Lewis lung carcinoma, B-16 melanoma and Colon Adenocarcinoma No. 38 as shown below.
(§2) The treated group to which the compound of the present invention was administered consisted of seven mice, while the control group consisted of ten mice. Six weeks old male mice [BDF1 (C57BL/6×DBA/2), 25±2 g of body weight] were employed as host animals.
Tumor cells (5×10^5) of Lewis lung carcinoma were transplanted subcutaneously in inguinal region of each mouse. The treatment began one day after the transplantation and the prescribed dose of each test compound was administered orally to the mice once a day for 8 days.
On the 20th day after the transplantation, the tumors of all the mice were excised and weighed. Antitumor activity of the test compound was evaluated by the rate of growth inhibition (G.I.%) which was calculated with the following formula. [formula] T: mean tumor weight of treated mice C: mean tumor weight of control mice

[3] = tested on: B-16 melanoma; assay: Animal Test on B-16 Melanoma (increase in life span); assay type: in vivo, mice [BDF1 (C57BL/6×DBA/2)]; settings: Mus musculus, B16, ip, 192 h, i.p., 8 days; for ILS at 20 mg/kg: 20 mg/kg daily; for ILS at 30 mg/kg: 30 mg/kg daily
Description: The treated group to which the compound of the present invention was administered consisted of seven mice, while the control group consisted of ten mice. Six weeks old male mice [BDF1 (C57BL/6×DBA/2) 25±2 g of body weight] were employed as host animals.
Tumor cells (5×10^5) of B-16 melanoma were transplanted intraperitoneally into each mouse. The treatment began one day after the transplantation and the prescribed dose of each test compound was administered intraperitoneally to the mice once a day for 8 days.
Antitumor activity of the test compound was evaluated by the rate of increase in life span (I.L.S.%) which was calculated in the same manner as used in the animal test on P388 lymphocytic leukemia.

[4] = tested on: Colon adenocarcinoma No. 38; assay: Animal Test on Colon Adenocarcinoma No. 38 (growth inhibition); assay type: in vivo, mice [BDF1 (C57BL/6×DBA/2)]; settings: 60 mg/kg daily, orally, 8 days; tumor weight on 30th day
Description: as §1, §2
Tumor cells (40 mg of fragment) of Colon adenocarcinoma No. 38 were transplanted subcutaneously in inguinal region of each mouse. The treatment began one day after the transplantation and the prescribed dose of each test compound was administered orally to the mice once a day for 8 days.
On the 30th day after the transplantation, the tumors of all the mice were excised and weighed. Antitumor activity of the test compound was evaluated by the rate of growth inhibition (G.I.%) which was calculated in the same manner as used in the animal test on Lewis lung carcinoma.

[5] = Acute Toxicity Test; settings: mouse, in vivo
Description: The test group to which the compound of the present invention was administered consisted of ten mice. Five weeks old male mice (ddY, 23±2 g of body weight) were employed as test animals.

[6] = protic polar solvents such as water, lower alcohol; background statement on known compound; cited from earlier work

Work on `O=C(Cc1ccccc1Cl)OCN1C(=O)CN(CCN2CC(=O)N(COC(=O)Cc3ccccc3Cl)C(=O)C2)CC1=O` [1,2-Bis(4-o-chlorophenylacetoxymethyl-3,5-dioxopiperazin-1-yl)ethane] yielded an ILS at 20 mg/kg [1] of 65% and an ILS at 200 mg/kg [1] of 83%.

`O=C(CCl)OCN1C(=O)CN(CCN2CC(=O)N(COC(=O)CCl)C(=O)C2)CC1=O` [1,2-Bis(4-chloroacetoxymethyl-3,5-dioxopiperazin-1-yl)ethane] showed an ILS at 20 mg/kg [1] of 54%, an ILS at 200 mg/kg [1] of 38% and a G.I. ([2]; 50 mg/kg daily) of 66.8%. It also gave an ILS at 20 mg/kg [3] of 38%.

Molecule `O=C1CN(CCN2CC(=O)N(CN3CCOCC3)C(=O)C2)CC(=O)N1CN1CCOCC1` [1,2-bis(4-morpholinomethyl-3,5-dioxopiperazin-1-yl)ethane, reference compound] has an ILS at 20 mg/kg [1] of 90%, an ILS at 100 mg/kg ([1]; 100 mg/kg × 2 (1st and 5th day)) of 60% and a G.I. ([2]; 60 mg/kg daily) of 22.6%. It also gave an ILS at 20 mg/kg [3] of 40%, a G.I. [4] of 72.8% and an LD50 ([5]; ip, 14 days observation) of 280 mg/kg. The LD50 ([5]; po) was greater than 1000 mg/kg and the “stability in protic polar solvents” value [6] was “extremely unstable in the protic polar solvents such as water, lower alcohol and so on”.

Molecule `O=C(CSc1ccc(Br)cc1)OCN1C(=O)CN(CCN2CC(=O)N(COC(=O)CSc3ccc(Br)cc3)C(=O)C2)CC1=O` [1,2-bis(4-p-bromophenylthioacetoxymethyl-3,5-dioxopiperazin-1-yl)ethane] has an ILS at 200 mg/kg [1] of 108%.

With `O=C(OCN1C(=O)CN(CCN2CC(=O)N(COC(=O)c3ccccc3F)C(=O)C2)CC1=O)c1ccccc1F` [1,2-bis(4-o-fluorobenzoyloxymethyl-3,5-dioxopiperazin-1-yl)ethane] the ILS at 200 mg/kg [1] was 113%.

In the case of `CC(C)COC(=O)OCN1C(=O)CN(CCN2CC(=O)N(COC(=O)OCC(C)C)C(=O)C2)CC1=O` [1,2-bis(4-isobutoxycarbonyloxymethyl-3,5-dioxopiperazin-1-yl)ethane], the ILS at 20 mg/kg [1] is reported as 78%, the ILS at 60 mg/kg [1] is reported as 175% and the ILS at 200 mg/kg [1] is reported as 138%. For the same molecule, the G.I. ([2]; 50 mg/kg daily) was 54.4%, the ILS at 20 mg/kg [3] was 86% and the G.I. [4] was 68.8%. It also gave an LD50 ([5]; ip, 14 days observation) greater than 850 mg/kg and an LD50 ([5]; po) greater than 1000 mg/kg.

Work on `O=C(OCN1C(=O)CN(CCN2CC(=O)N(COC(=O)c3cccs3)C(=O)C2)CC1=O)c1cccs1` [1,2-Bis[4-(2-thenoyloxymethyl)-3,5-dioxopiperazin-1-yl]ethane] yielded an ILS at 200 mg/kg [1] of 118%.

With `O=C(OCN1C(=O)CN(CCN2CC(=O)N(COC(=O)c3ccco3)C(=O)C2)CC1=O)c1ccco1` [1,2-bis[4-(2-furoyloxymethyl)-3,5-dioxopiperazin-1-yl]ethane] the ILS at 200 mg/kg [1] was greater than 200% and the ILS at 20 mg/kg [3] was 88%.

Work on `O=C(Cc1ccccc1)OCN1C(=O)CN(CCN2CC(=O)N(COC(=O)Cc3ccccc3)C(=O)C2)CC1=O` [1,2-bis(4-phenylacetoxymethyl-3,5-dioxopiperazin-1-yl)ethane] yielded an ILS at 20 mg/kg [1] of 143%, an ILS at 200 mg/kg [1] of 204% and an ILS at 20 mg/kg [3] of 83%.

For `COc1ccccc1C(=O)OCN1C(=O)CN(CCN2CC(=O)N(COC(=O)c3ccccc3OC)C(=O)C2)CC1=O` [1,2-Bis(4-o-methoxybenzoyloxymethyl-3,5-dioxopiperazin-1-yl)ethane], the ILS at 20 mg/kg [1] was 113% and the ILS at 200 mg/kg [1] was 99%.

`CC(=O)OCN1C(=O)CN(CCN2CC(=O)N(COC(C)=O)C(=O)C2)CC1=O` [1,2-Bis(4-acetoxymethyl-3,5-dioxopiperazin-1-yl)ethane] showed an ILS at 20 mg/kg [1] of 63%, an ILS at 60 mg/kg [1] of 118% and an ILS at 200 mg/kg [1] of 45%. It also gave a G.I. ([2]; 60 mg/kg daily) of 79.6%, an ILS at 20 mg/kg [3] of 39% and a G.I. [4] of 68.0%. The LD50 ([5]; ip, 14 days observation) was greater than 1000 mg/kg and the LD50 ([5]; po) was greater than 2000 mg/kg.

`COc1ccc(C=CC(=O)OCN2C(=O)CN(CCN3CC(=O)N(COC(=O)C=Cc4ccc(OC)cc4)C(=O)C3)CC2=O)cc1` [1,2-bis(4-p-methoxycinnamoyloxymethyl-3,5-dioxopiperazin-1-yl)ethane] showed an ILS at 20 mg/kg [1] of 78% and an ILS at 200 mg/kg [1] of 36%.

`CC(=O)Oc1ccc(C=CC(=O)OCN2C(=O)CN(CCN3CC(=O)N(COC(=O)C=Cc4ccc(OC(C)=O)c(OC(C)=O)c4)C(=O)C3)CC2=O)cc1OC(C)=O` [1,2-bis[4-(3,4-diacetoxycinnamoyloxymethyl)-3,5-dioxopiperazin-1-yl]ethane] gave an ILS at 20 mg/kg [1] of 35% and an ILS at 200 mg/kg [1] of 51%.

With `CC(C)(Oc1ccc(Cl)cc1)C(=O)OCN1C(=O)CN(CCN2CC(=O)N(COC(=O)C(C)(C)Oc3ccc(Cl)cc3)C(=O)C2)CC1=O` [1,2-bis[4-(2-p-chlorophenoxy-2-methylpropionyloxymethyl)-3,5-dioxopiperazin-1-yl]ethane] the ILS at 20 mg/kg [1] was 63%, the ILS at 200 mg/kg [1] was 114% and the ILS at 30 mg/kg [3] was 86%.

For `O=C(OCN1C(=O)CN(CCN2CC(=O)N(COC(=O)c3ccccc3Cl)C(=O)C2)CC1=O)c1ccccc1Cl` [1,2-Bis(4-o-chlorobenzoyloxymethyl-3,5-dioxopiperazin-1-yl)ethane], the ILS at 20 mg/kg [1] was 55%, the ILS at 200 mg/kg [1] was 90% and the G.I. ([2]; 40 mg/kg daily) was 43.7%. The ILS at 20 mg/kg [3] was 65%.

`O=C(COc1ccc(Cl)cc1)OCN1C(=O)CN(CCN2CC(=O)N(COC(=O)COc3ccc(Cl)cc3)C(=O)C2)CC1=O` [1,2-bis(4-p-chlorophenoxyacetoxymethyl-3,5-dioxopiperazin-1-yl)ethane] showed an ILS at 20 mg/kg [1] of 40% and an ILS at 200 mg/kg [1] of 94%.

`O=C(CSc1ccc(F)cc1)OCN1C(=O)CN(CCN2CC(=O)N(COC(=O)CSc3ccc(F)cc3)C(=O)C2)CC1=O` [1,2-bis(4-p-fluorophenylthioacetoxymethyl-3,5-dioxopiperazin-1-yl)ethane] gave an ILS at 200 mg/kg [1] of 120% and an ILS at 40 mg/kg ([3]; 40 mg/kg daily) of 83%.

With `O=C(OCN1C(=O)CN(CCN2CC(=O)N(COC(=O)c3ccccc3)C(=O)C2)CC1=O)c1ccccc1` [1,2-bis(4-benzoyloxymethyl-3,5-dioxopiperazin-1-yl)ethane] the ILS at 20 mg/kg [1] was 68%, the ILS at 200 mg/kg [1] was 107% and the ILS at 20 mg/kg [3] was 87%.

Work on `O=C(COc1cc(Cl)c(Cl)cc1Cl)OCN1C(=O)CN(CCN2CC(=O)N(COC(=O)COc3cc(Cl)c(Cl)cc3Cl)C(=O)C2)CC1=O` [1,2-bis[4-(2,4,5-trichlorophenoxyacetoxymethyl)-3,5-dioxopiperazin-1-yl]ethane] yielded an ILS at 20 mg/kg [1] of 65% and an ILS at 200 mg/kg [1] of 94%.

`CCOC(=O)OCN1C(=O)CN(CCN2CC(=O)N(COC(=O)OCC)C(=O)C2)CC1=O` [1,2-bis(4-ethoxycarbonyloxymethyl-3,5-dioxopiperazin-1-yl)ethane] gave an ILS at 20 mg/kg [1] of 48% and an ILS at 200 mg/kg [1] of 45%.

`COC(=O)OCN1C(=O)CN(CCN2CC(=O)N(COC(=O)OC)C(=O)C2)CC1=O` [1,2-Bis(4-methoxycarbonyloxymethyl-3,5-dioxopiperazin-1-yl)ethane] gave an ILS at 20 mg/kg [1] of 75%, an ILS at 200 mg/kg [1] of 103% and a G.I. ([2]; 60 mg/kg daily) of 57.7%. It also gave an ILS at 30 mg/kg [3] of 78%, an LD50 ([5]; ip, 14 days observation) of roughly 500 mg/kg and an LD50 ([5]; po) greater than 2000 mg/kg.

`CC(C)(C)C(=O)OCN1C(=O)CN(CCN2CC(=O)N(COC(=O)C(C)(C)C)C(=O)C2)CC1=O` [1,2-Bis(4-pivaloyloxymethyl-3,5-dioxopiperazin-1-yl)ethane] showed an ILS at 20 mg/kg [1] of 53% and an ILS at 200 mg/kg [1] of 66%.

`O=C(COc1ccc(Cl)cc1Cl)OCN1C(=O)CN(CCN2CC(=O)N(COC(=O)COc3ccc(Cl)cc3Cl)C(=O)C2)CC1=O` [1.2-Bis[4-(2,4-dichlorophenoxyacetoxymethyl)-3,5-dioxopiperazin-1-yl]ethane] showed an ILS at 20 mg/kg [1] of 49%, an ILS at 60 mg/kg [1] of 105% and an ILS at 200 mg/kg [1] of 72%. For the same molecule, the ILS at 20 mg/kg [3] was 35%.
